Patent US7683163B2, “Colchicoside analogues” (priority 2003, dated 2010)

How the values were obtained:
[1] = tested on: Swiss male mice; experiment: rota-rod test (muscle relaxant activity); format: in vivo; settings: for Resistance time (sec. M ± S.E.): thirty minutes before the test
Method: Muscle relaxant activity was evaluated with the rota-rod test. Swiss male mice weighing 20-25 g were treated intraperitoneally with the β-D isomer of compound (Ib) at doses of 1-3-10 mg/kg, thirty minutes before the test. Relaxant activity on striated muscles was evaluated by testing the resistance of the mice to the stimuli of a rotating plane revolving at increasing rate, from 2 to 50 r.p.m.

[2] = acute toxicity (DL50 i.p.); settings: for DL50/DE50: toxic/active dose ratio
[3] = rota-rod, mice, dose 1 mg/Kg i.p.
[4] = rota-rod, mice, dose 3 mg/Kg i.p.
[5] = rota-rod, mice, dose 10 mg/Kg i.p.
[6] = rota-rod, mice, i.p., Table 1, with limits in brackets

Row | SMILES | DE50 ([1]; Table 2) [mg/kg i.p.] | muscle relaxant activity compared with thiocolchicoside ([1]; rota-rod, mice, 1-3-10 mg/kg i.p.) | Resistance time (sec. M ± S.E.) [1, 3] [s] | Resistance time (sec. M ± S.E.) [1, 4] [s] | Resistance time (sec. M ± S.E.) [1, 5] [s] | DE50 [1, 6] | DL50 ([2]; Table 2) [mg/kg i.p.] | DL50 ([2]; i.p.) | DL50/DE50 ([2]; i.p.)
1 | COc1c(O[C@@H]2OC[C@@H](O)[C@H](O)[C@H]2O)cc2c(c1OC)-c1ccc(SC)c(=O)cc1C(NC(C)=O)CC2 (single isomer, unassigned) [Compound (Ib) isomer β-D, 3-O-β-D-xylopyranosyl-3-O-demethylthiocolchicine] | 2.23 | more active than thiocolchicoside | 270 ± 19 | 175 ± 14 | 80 ± 10 | 2.23 (1.84-2.82) mg/Kg | 80 | 80 (63-94) mg/kg | 35.87
2 | COc1c(O[C@@H]2O[C@H](CO)[C@@H](O)[C@H](O)[C@H]2O)cc2c(c1OC)-c1ccc(SC)c(=O)cc1[C@@H](NC(C)=O)CC2 [Thiocolchicoside isomer β-D, 3-demethyl-thiocolchicine glucoside, reference compound] | 4.47 |  | 345 ± 20 | 265 ± 17 | 110 ± 12 | 4.47 (3.16-7.01) mg/Kg | 20 | 20 mg/kg | 4.47
